{
  "source": "patent US9388142B2",
  "about": "“Quinazolinone derivatives as PARP inhibitors” (MERCK PATENT GMBH, priority 2012, dated 2016)",
  "key": {"[1]": {"biological_target": "GST-tagged Tankyrase-2 (873-1166 aa) (Homo sapiens, UniProt Q9H2K2)", "sequence (Q9H2K2 873-1166)": "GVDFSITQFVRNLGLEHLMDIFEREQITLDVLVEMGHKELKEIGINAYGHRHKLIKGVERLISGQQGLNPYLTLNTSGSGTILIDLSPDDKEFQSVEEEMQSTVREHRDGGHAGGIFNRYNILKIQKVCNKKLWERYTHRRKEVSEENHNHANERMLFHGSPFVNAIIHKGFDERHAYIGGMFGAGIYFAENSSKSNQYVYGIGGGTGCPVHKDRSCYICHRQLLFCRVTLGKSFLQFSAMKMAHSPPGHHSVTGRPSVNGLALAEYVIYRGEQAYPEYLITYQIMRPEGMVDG", "experiment": "biochemical", "description": "(§1) aq (aqueous), h (hour), g (gram), L (liter), mg (milligram), MHz (Megahertz), min. (minute), mm (millimeter), mmol (millimole), mM (millimolar), m.p. (melting point), eq (equivalent), mL (milliliter), L (microliter), ACN (acetonitrile), AcOH (acetic acid), CDCl3 (deuterated chloroform), CD3OD (deuterated methanol), CH3CN (acetonitrile), c-hex (cyclohexane), DCC (dicyclohexyl carbodiimide), DCM (dichloromethane), DIC (diisopropyl carbodiimide), DIEA (diisopropylethyl-amine), DMF (dimethylformamide), DMSO (dimethylsulfoxide), DMSO-d6 (deuterated dimethylsulfoxide), EDC (1-(3-dimethyl-amino-propyl)-3-ethylcarbodiimide), ESI (Electro-spray ionization), EtOAc (ethyl acetate), Et2O (diethyl ether), EtOH (ethanol), HATU (dimethylamino-([1,2,3]triazolo[4,5-b]pyridin-3-yloxy)-methylene]-dimethylammonium hexafluorophosphate), HPLC (High Performance Liquid Chromatography), i-PrOH (2-propanol), K2CO3 (potassium carbonate), LC (Liquid Chromatography), MeOH (methanol), MgSO4 (magnesium sulfate), MS (mass spectrometry), MTBE (Methyl tert-butyl ether), NaHCO3 (sodium bicarbonate), NaBH4 (sodium borohydride), NMM (N-methyl morpholine), NMR (Nuclear Magnetic Resonance), PyBOP (benzotriazole-1-yl-oxy-trispyrrolidino-phosphonium hexafluorophosphate), RT (room temperature), Rt (retention time), SPE (solid phase extraction), TBTU (2-(1-H-benzotriazole-1-yl)-1,1,3,3-tetramethyluromium tetrafluoro borate), TEA (triethylamine), TFA (trifluoroacetic acid), THF (tetrahydrofuran), TLC (Thin Layer Chromatography), UV (Ultraviolet). Description of the In Vitro Assays Abbreviations: GST=Glutathione-S-transferase FRET=Fluorescence resonance energy transfer HTRF®=(homogenous time resolved fluorescence) HEPES=4-(2-hydroxyethyl)-1-piperazine ethanesulfonic acid buffer DTT=Dithiothreitol BSA=bovine serum albumin CHAPS=detergent; CHAPS=3[(3-cholamidopropyl)dimethylammonio]-1-propanesulfonate Streptavidin-XLent® is a high grade streptavidin-XL665 conjugate for which the coupling conditions have been optimized to yield a conjugate with enhanced performances for some assays, particularly those requiring high sensitivity.\n(§2) The autoparsylation assay is run in two steps: the enzymatic reaction in which GST-tagged Tankyrase-1, resp Tankyrase-2 transferred biotinylated ADP-ribose to itself from biotinylated NAD as co-substrate and the detection reaction where a time resolved FRET between cryptate labelled anti-GST bound to the GST tag of the enzyme and Xlent® labelled-streptavidin bound the biotin-parsylation residue is analysed. The autoparsylation activity was detectable directly via the increase in HTRF signal.\n(§3) The autoparsylation assay is performed as 384-well HTRF® (Cisbio, Codolet, France) assay format in Greiner low volume nb 384-well microtiter plates and is used for high throughput screen. […] The reaction is stopped by the addition of 1 μl 50 mM EDTA solution. […] The ratio of the emission signals is determined. The full value used is the inhibitor-free reaction. […] The inhibitory values (IC50) are determined using either the program Symyx Assay Explorer® or Condosseo® from GeneData."}, "[2]": {"biological_target": "T1, GST-tagged Tankyrase-1 (1023-1327 aa) (Homo sapiens, UniProt O95271)", "T1 construct": "GST-tagged Tankyrase-1 (1023-1327 aa)", "T1 sequence (O95271 1023-1327)": "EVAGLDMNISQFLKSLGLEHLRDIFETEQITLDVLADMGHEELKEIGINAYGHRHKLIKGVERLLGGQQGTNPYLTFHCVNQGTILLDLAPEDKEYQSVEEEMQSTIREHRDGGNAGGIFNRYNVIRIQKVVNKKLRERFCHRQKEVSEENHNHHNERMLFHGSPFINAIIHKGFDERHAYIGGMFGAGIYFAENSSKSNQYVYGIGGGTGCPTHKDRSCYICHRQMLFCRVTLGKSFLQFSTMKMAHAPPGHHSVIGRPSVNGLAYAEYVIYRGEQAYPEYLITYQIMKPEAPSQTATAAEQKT", "experiment": "biochemical", "conditions": "read-out: IC50 tankyrase 1 (enzyme assay)", "description": "as §1, §2, §3"}, "β-catenin": {"tested_on": "β-catenin", "conditions": "by increasing the levels of the AXIN1 and AXIN2 proteins; cited from earlier work"}, "DLD-1-cancer cells": {"tested_on": "DLD-1-cancer cells", "conditions": "cited from earlier work"}, "tankyrase 1/2": {"tested_on": "tankyrase 1/2", "experiment": "Cellular inhibition of tankyrase: increase of Axin2 level in DLD1 cells (Luminex)", "type": "cell-based", "conditions": "read-out: EC50 tankyrase 1/2 (cell assay), 24 hours", "protocol": "Measurement of Cellular Inhibition of Tankyrase\nCells of the colon carcinoma cell line DLD1 are plated in 96 well plates with 1.5×10^4 cells per well. Next day, cells are treated with a serial dilution of test compound in seven steps as triplicates with a final DMSO concentration of 0.3%. After 24 hours, cells are lysed in lysis buffer (20 mM Tris/HCl pH 8.0, 150 mM NaCl, 1% NP40, 10% Glycerol) and lysates are cleared by centrifugation through a 96 well filter plate (0.65 μm). […] The amount of isolated Axin2 protein is determined in a Luminex^200 machine (Luminex Corporation) according to the manufacturer's instruction by counting 100 events per well. […] For analysis, the obtained data are normalized against the untreated solvent control and fitted for determination of the EC50 values using the Assay Explorer software (Accelrys)."}, "His-tagged Parp-1": {"biological_target": "T2, His-tagged Parp-1 (Homo sapiens, UniProt P09874)", "T2 construct": "purchased Enzo Life Sciences GmbH, Lörrach, Germany", "T2 sequence (P09874 whole entry)": "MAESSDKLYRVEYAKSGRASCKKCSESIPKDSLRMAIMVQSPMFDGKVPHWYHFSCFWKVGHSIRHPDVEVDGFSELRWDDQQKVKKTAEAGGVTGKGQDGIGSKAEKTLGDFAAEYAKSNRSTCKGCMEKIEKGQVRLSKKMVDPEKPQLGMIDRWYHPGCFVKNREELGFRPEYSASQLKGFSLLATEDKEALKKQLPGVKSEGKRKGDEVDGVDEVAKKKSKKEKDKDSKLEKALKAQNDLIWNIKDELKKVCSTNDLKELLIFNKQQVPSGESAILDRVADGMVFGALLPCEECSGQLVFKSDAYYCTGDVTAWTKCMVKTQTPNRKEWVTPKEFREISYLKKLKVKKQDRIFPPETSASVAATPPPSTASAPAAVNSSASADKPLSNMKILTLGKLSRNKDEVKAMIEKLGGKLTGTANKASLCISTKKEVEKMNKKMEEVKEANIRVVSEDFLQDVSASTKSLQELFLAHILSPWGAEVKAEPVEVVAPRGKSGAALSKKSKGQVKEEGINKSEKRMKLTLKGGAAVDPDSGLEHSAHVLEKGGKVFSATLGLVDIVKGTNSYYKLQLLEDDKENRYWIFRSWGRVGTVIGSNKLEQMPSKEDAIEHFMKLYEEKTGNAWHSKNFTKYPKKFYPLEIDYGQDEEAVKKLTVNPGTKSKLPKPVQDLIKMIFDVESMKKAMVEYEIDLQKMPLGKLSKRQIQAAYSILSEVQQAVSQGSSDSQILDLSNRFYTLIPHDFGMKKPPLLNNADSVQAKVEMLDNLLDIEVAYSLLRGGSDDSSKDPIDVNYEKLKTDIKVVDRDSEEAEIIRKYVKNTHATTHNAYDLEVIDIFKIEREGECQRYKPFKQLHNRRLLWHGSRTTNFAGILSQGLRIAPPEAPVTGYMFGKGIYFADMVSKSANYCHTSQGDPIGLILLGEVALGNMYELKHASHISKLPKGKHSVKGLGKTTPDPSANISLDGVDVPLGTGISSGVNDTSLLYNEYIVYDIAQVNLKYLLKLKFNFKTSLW", "experiment": "PARP-1 autoparsylation assay (HTRF)", "type": "biochemical", "description": "Description of the PARP1 Assay\nBiochemical Activity Testing of PARP-1: Autoparsylation Assay\nas §2, with “His-tagged Parp-1 transfers” for “GST-tagged Tankyrase-1, resp Tankyrase-2 transferred”, “ADP-ribose/ADP-ribose” for “ADP-ribose”, “NAD/NAD” for “NAD”, “anti-His antibody” for “anti-GST”, “His” for “GST”, “is” for “was”\nThe autoparsylation assay is performed as 384-well HTRF® (Cisbio, Codolet, France) assay format in Greiner low volume nb 384-well microtiter plates. 35 nM His-tagged Parp-1 (human, recombinant, Enzo Life Sciences GmbH, Lörrach, Germany) and a mixture of 125 nM bio-NAD (Biolog, Life science Inst., Bremen, Germany) and 800 nM NAD as co-substrate are incubated in a total volume of 6 μl (100 mM Tris/HCl, 4 mM Mg-chloride, 0.01% IGEPAL® CA630, 1 mM DTT, 0.5% DMSO, pH 8, 13 ng/μl activated DNA (BPS Bioscience, San Diego, US)) in the absence or presence of the test compound (10 dilution concentrations) for 150 min at 23° C. The reaction is stopped by the addition of 4 μl of the Stop/detection solution (70 nM SA-Xlent® (Cisbio, Codolet, France), 2.5 nM Anti-His-K® (Eu-labelled anti-His, Cisbio, Codolet, France) in 50 mM HEPES, 400 mM KF, 0.1% BSA, 20 mM EDTA, pH 7.0). After 1 h incubation at room temperature the HTRF iss measured with an Envision multimode reader (Perkin Elmer LAS Germany GmbH) at excitation wavelength 340 nm (laser mode) and emission wavelengths 615 nm and 665 nm. The ratio of the emission signals is determined. The full value used is the inhibitor-free reaction. The pharmacological zero value used is Olaparib (LClabs, Woburn, US) in a final concentration of 1 The inhibitory values (IC50) are determined using either the program Symyx Assay Explorer® or Condosseo® from GeneData."}, "[3]": {"biological_target": "T3, GST-tagged Tnks-1 (1023-1327 aa) (Homo sapiens, UniProt O95271)", "T3 construct": "GST-tagged Tnks-1 (1023-1327 aa, prepared in-house); made in house", "T3 sequence (O95271 1023-1327)": "as the sequence (O95271 1023-1327) above", "experiment": "TNKS1 activity ELISA (autoparsylation assay)", "type": "biochemical", "protocol": "(§4) Description of the TNKS1 and TNKS2 ELISA Assay\n(§5) Then the activity assay with biotinylated NAD is performed in the absence/presence of the compounds. During the enzymatic reaction GST tagged TNKS transfers biotinylated ADP-ribose to itself from biotinylated NAD as co-substrate. For the detection streptavidin-HRP conjugate is added that binds to the biotinylated TNKS and is thereby captured to the plates. The amount of biotinylated resp. autoparsylated TNKS is detected with a luminescence substrate for HRP. The level of the luminescence signal correlates directly with the amount of autoparsylated TNKS and therefore with activity of TNKS.\n(§6) The activity ELISA is performed in 384 well Glutathione coated microtiter plates (Express capture Glutathione coated plate, Biocat, Heidelberg, Germany). The plates are pre-equilibrated with PBS. […] The plates are washed 3 times with PBS-Tween-20. The wells are blocked by incubation at room temperature for 20 minutes with 50 μl blocking buffer (PBS, 0.05% Tween-20, 0.5% BSA). Afterwards the plates are washed 3 times with PBS-Tween-20. […] The reaction is stopped by 3 times washing with PBS-Tween-20. For the detection 50 μl of 20 ng/μl Streptavidin, HRP conjugate (MoBiTec, Gottingen, Germany) in PBS/0.05% Tween-20/0.01% BSA are added and the plates are incubated for 30 minutes at room temperature. After three times washing with PBS-Tween-20 50 μl of SuperSignal ELISA Femto Maximum sensitivity substrate solution (ThermoFisherScientific (Pierce), Bonn, Germany) are added. Following a 1 minute incubation at room temperature luminescence signals are measured with an Envision multimode reader (Perkin Elmer LAS Germany GmbH) at 700 nm. The full value used is the inhibitor-free reaction. […] The inhibitory values (IC50) are determined using either the program Symyx Assay Explorer® or Condosseo® from GeneData."}, "[4]": {"conditions": "at 30 μM; cited from earlier work"}, "[5]": {"biological_target": "GST-tagged Tnks-2 (873-1166 aa) (Homo sapiens, UniProt Q9H2K2)", "sequence (Q9H2K2 873-1166)": "as the sequence (Q9H2K2 873-1166) above", "experiment": "biochemical", "protocol": "as §4, §5, §6"}},
  "note": "Counter-ions that a name gives are not always drawn. Like-named read-outs stand apart in the source and are kept apart here.",
  "data": [
    {"smiles": "CC(C)c1ccc(-c2nc3ccc(F)cc3c(=O)[nH]2)cc1", "note": "[Compound A22, 6-fluoro-2-(4-isopropyl-phenyl)-3H-quinazolin-4-one]", "values": [
      {"measurement": "IC50", "setting": "[1]", "result": "300 to 3000", "unit": "nM"},
      {"measurement": "IC50", "setting": "[2]", "result": "300 to 3000", "unit": "nM"}
    ]},
    {"smiles": "Oc1nc(-c2ccc(C(F)(F)F)cc2)nc2c1CSCC2", "note": "[XAV939]", "values": [
      {"measurement": "Wnt-stimulated accumulation of β-catenin", "setting": "β-catenin", "result": "blocked"},
      {"measurement": "growth of DLD-1-cancer cells", "setting": "DLD-1-cancer cells", "result": "inhibits growth"}
    ]},
    {"smiles": "Cc1cc(F)cc2c(=O)[nH]c(-c3ccc(N4CCCN(C)CC4)cc3)nc12", "note": "[Compound A32, 6-fluoro-8-methyl-2-[4-(4-methyl-[1,4]diazepan-1-yl)-phenyl]-3H-quinazolin-4-one]", "values": [
      {"measurement": "IC50", "setting": "[1]", "result": "300 to 3000", "unit": "nM"},
      {"measurement": "IC50", "setting": "[2]", "result": "300 to 3000", "unit": "nM"},
      {"measurement": "EC50", "setting": "tankyrase 1/2", "result": "300 to 3000", "unit": "nM"}
    ]},
    {"smiles": "CC(C)(O)c1ccc(-c2nc3ccc(F)cc3c(=O)[nH]2)cc1", "note": "[Compound A1, 6-fluoro-2-[4-(1-hydroxy-1-methyl-ethyl)-phenyl]-3H-quinazolin-4-one]", "values": [
      {"measurement": "IC50", "setting": "[2]", "result": "< 300", "unit": "nM"},
      {"measurement": "IC50", "setting": "His-tagged Parp-1", "result": "300 to 3000", "unit": "nM"},
      {"measurement": "IC50", "setting": "[3]; read-out: IC50 TNKS1 ELISA", "result": "< 300", "unit": "nM"}
    ]},
    {"smiles": "Cc1cc(F)cc2c(=O)[nH]c(-c3ccc(C4CCNCC4)cc3)nc12", "note": "[Compound A33, 6-fluoro-8-methyl-2-(4-piperidin-4-yl-phenyl)-3H-quinazolin-4-one hydrochloride]", "values": [
      {"measurement": "IC50", "setting": "[2]", "result": "< 300", "unit": "nM"},
      {"measurement": "IC50", "setting": "His-tagged Parp-1", "result": "300 to 3000", "unit": "nM"},
      {"measurement": "IC50", "setting": "[3]", "result": "< 300", "unit": "nM"}
    ]},
    {"smiles": "O=c1[nH]c(-c2ccc3c(c2)OCO3)nc2ccccc12", "values": [
      {"measurement": "cellular assay", "setting": "[4]", "result": "no effect"}
    ]},
    {"smiles": "Cc1cc(F)cc2c(=O)[nH]c(-c3ccc(N4CCS(=O)(=O)CC4)cc3)nc12", "note": "[Compound A30, 2-[4-(1,1-dioxo-1|6-thiomorpholin-4-yl)-phenyl]-6-fluoro-8-methyl-3H-quinazolin-4-one]", "values": [
      {"measurement": "IC50", "setting": "[1]", "result": "300 to 3000", "unit": "nM"},
      {"measurement": "IC50", "setting": "[2]", "result": "300 to 3000", "unit": "nM"},
      {"measurement": "EC50", "setting": "tankyrase 1/2", "result": "< 300", "unit": "nM"},
      {"measurement": "IC50", "setting": "His-tagged Parp-1", "result": "300 to 3000", "unit": "nM"},
      {"measurement": "IC50", "setting": "[5]", "result": "< 300", "unit": "nM"},
      {"measurement": "IC50", "setting": "[3]", "result": "< 300", "unit": "nM"}
    ]}
  ]
}
